Assay results: US12194081B2, “ARGINASE1 polypeptides” (IO BIOTECH APS, priority 2018, dated 2025)

System: PBMCs from cancer patients and healthy donors
Assay: in vitro IFNγ ELISPOT of PBMCs after 7 days with peptide and IL-2
Type: cell-based, human
Conditions: for cancer patients showing responses in IFNγ ELISPOT: out of 16 cancer patients (8 melanoma, 6 multiple myeloma, 1 breast cancer, 1 renal cell carcinoma); for cancer patients showing responses in IFNγ ELISPOT / healthy donors showing responses in IFNγ ELISPOT: strong responses counted for ArgLong2, FIG. 2; for healthy donors showing responses in IFNγ ELISPOT: out of 19 healthy donors; for responses in IFNγ ELISPOT (in words): PBMCs from 6 healthy donors, peptide and low dose IL-2 for 1 week, FIG. 1
Protocol: PBMCs from healthy donors were isolated using density gradient separation over LymphoprepTM (STEMCELL Technologies) and cryopreserved at -150° C. in FBS supplemented with 10% DMSO. PBMCs from cancer patients were isolated from blood sample a minimum of four weeks after the termination of any anti-cancer therapy. The protocol was approved by the Scientific Ethics Committee for The Capital Region of Denmark and conducted in accordance with the provisions of the Declaration of Helsinki. Written informed consent from the patients was obtained before study entry. […] The sequences of the peptides used in these experiments are shown in full below in alignment with each other, and are also set out in the section entitled “Sequences”). Peptides are described by SEQ ID NO, by name, or by reference to the start and end positions of each peptide sequence within the full length sequence of Arginase 1. Each may be used interchangeably. For example, the peptide of SEQ ID NO: 1 may alternatively be referred to by the name ArgLong2, or may alternatively be referred to as […]-206 (given a start position of 169 and end position of 206). The intended reference in each case will be clear from the context. For in vitro ELISPOT, PBMCs from cancer patients and healthy donors were pulsed with 20 μM of Arginase 1-derived peptides and 120 U/ml IL-2 in 24-well plates for 7 days before being used in an ELISPOT assay. The cells were placed in 96-well nitrocellulose ELISPOT plates (MultiScreen MAIP […]; Millipore) pre-coated with IFNγ capture antibody (Mabtech). Arginase peptides added to a final concentration of 5 μM and plates incubated at 37° C. for 14-16 hours. After the incubation the cells were washed off and secondary biotinylated Ab (Mabtech, cat. 3420-6-1000) was added for 2 hours at room temperature. Unbound secondary antibody was washed off and streptavidin conjugated alkaline phosphatase (AP) (Mabtech, cat. 3310-10) was added for 1 hour at room temperature. Unbound conjugated enzyme was washed off and the assay was developed by adding BCIP/NBT substrate (Mabtech, cat. 3650-10). Developed ELISPOT plates were analyzed on CTL ImmunoSpot S6 Ultimate-V analyzer using Immunospot software v5.1. Responses were reported as the difference between average numbers of spots in wells stimulated with Arginase 1 and wells without added peptide.

Sequence: AKDIVYIGLRDVDPGEHYIL (Peptide fragment of human Arginase 1 (Arg1-18)) [Arg171-190, previously described 20-mer Arginase 1 peptide (WO2018065563), reference compound]
- cancer patients showing responses in IFNγ ELISPOT: 3 cancer patients
- healthy donors showing responses in IFNγ ELISPOT: 3 healthy donors

Sequence: DVDPGEHYILKTLGIKYFSM (Peptide fragment of human Arginase 1 (Arg1-19)) [Arg181-200, previously described 20-mer Arginase 1 peptide (WO2018065563), reference compound]
- cancer patients showing responses in IFNγ ELISPOT: 6 cancer patients
- healthy donors showing responses in IFNγ ELISPOT: 4 healthy donors

Sequence: ISAKDIVYIGLRDVDPGEHYILKTLGIKYFSM (Peptide fragment of human Arginase 1 (ArgLong3)) [32-mer, positions 169-200 of full length human Arginase 1]
- responses in IFNγ ELISPOT (in words): low or no responses

Sequence: ISAKDIVYIGLRDVDPGEHYILKTLGIKYFSMTEVDRLGIGK (Peptide fragment of human Arginase 1 (ArgLong)) [42-mer, positions 169-210 of full length human Arginase 1]
- responses in IFNγ ELISPOT (in words): low or no responses

Sequence: KTLGIKYFSMTEVDRLGIGK (Peptide fragment of human Arginase 1 (Arg1-20)) [Arg191-210, previously described 20-mer Arginase 1 peptide (WO2018065563), reference compound]
- cancer patients showing responses in IFNγ ELISPOT: 3 cancer patients
- healthy donors showing responses in IFNγ ELISPOT: 7 healthy donors
